# Patent US6706509B2, “Oncoprotein protein kinase” (The Regents of the University of California, priority 1993, dated 2004)
# Key:
# JNK = test: Solid-state phosphorylation assay of JNK in mouse thymocytes; assay type: cell-based
# Method: (§1) Jurkat cells were grown in RPMI with 10% fetal calf serum (FCS), 1 mM […], 100 μ/ml penicillin (pen), 100 μg/ml streptomycin (strep) and 250 ng/ml amphotericin (complete medium). HeLa S3, CV-1 and FR3T3 cells were grown in DMEM supplemented with 10% FCS, 100 μ/ml pen, 100 μg/ml strep. All cells were cultured at 37° C. with 5% CO2. Mouse thymocytes were prepared from 8 week old Balb/C mice by gradient centrifugation on lymphocyte separation medium (Pharmacia). The lymphocytes were cultured for 5 hours at 37° C. in RPMI+10% FCS, prior to stimulation. Jurkat cells were labelled for 90 minutes with 0.5 mCi/ml ^32P-orthophosphate (ICN Radiochemicals) in medium lacking sodium phosphate. Labelled cells were treated with TPA (Sigma) and A23187 (Calbiochem) 1 μg/ml as indicated. When used, cyclosporin A (CsA) (Sandoz) 100 ng/ml in ethanol was added 10 minutes prior to cell stimulation. Following stimulation, the labelled cells were washed twice with ice-cold PBS then lysed with RIPA buffer (10 mM Tris pH 7.5, 150 mM NaCl, 2 mM EDTA, 1% Triton-X 100, 1% DOC, 0.1% SDS) supplemented with phosphatase inhibitors (20 mM β-glycerophosphate, 10 mM p-nitro-phenylphosphate, 1 mM Na3 VO4), and protease inhibitors (10 μg/ml leupeptin, aprotonin, pepstatin and 1 mM phenylmethyl sulfonylfluoride). c-Jun was immunoprecipitated as described (Binetruy, et al., supra., 1992) and analyzed by SDS-PAGE, followed by peptide mapping (Boyle, et al., Cell, 64:573-584, 1991; Lin, et al. Cell, 70:777-789, 1992). Ha-Ras was immunoprecipitated with Y13-259. Ha-Ras bound nucleotides were extracted and analyzed as described by Satoh, et al., (Proc. Natl. Acad. Sci., USA, 15:5993-5997, 1990).
# We examined whether elevated intracellular Ca^++ affects JNK activation in other cells. […] Cultures of FR3T3, CV-1, PC12 and mouse thymocytes were incubated for 15 minutes in the presence of TPA (50 ng/ml, T), A23817 (1 μg/ml, A) and/or CsA (100 ng/ml), as indicated. […] After washing, JNK activity was determined by solid-state phosphorylation assay as described above.
# c-jun = test: c-Jun phosphorylation in 32P-labelled Jurkat cells (SDS-PAGE, tryptic phosphopeptide mapping); assay type: cell-based, human
# Method: as §1
# Induction of c-Jun transcription and optimal stimulation of AP-1 correlate with changes in c-jun phosphorylation (Devary, et al., Cell, 71:1081-1091, 1992). The effect of TPA and A23187 on c-Jun phosphorylation in Jurkat cells was examined. To elevate c-Jun expression, Jurkat cells were transfected with a c-Jun expression vector. The cells were labelled with ^32P and c-Jun was immunoprecipitated from cells subjected to various stimuli and analyzed by SDS-PAGE (FIG. 12A). Jurkat cells (10^6 cells per lane) were transfected with 0.5 μg of a SRα-cJun expression vector and 24 hours later were labeled for 3 hours with ^32P-orthophosphate (1 mCi/ml). After 15 minutes, treatment with 50 ng/ml TPA (T), 1 μg/ml A23187 (A) and 100 ng/ml CsA, either alone or in combination, as indicated, the cells were lysed in RIPA buffer and c-Jun was isolated by immunoprecipitation and analyzed by SDS-PAGE. The c-Jun bands are indicated.
# c-Jun phosphorylation was further analyzed by two-dimensional phosphopeptide mapping (FIG. 12C). This analysis included all the isoforms of c-Jun. All of the c-Jun specific protein bands shown in FIG. 12A, isolated from equal numbers of cells, were excised from the gel and subjected to tryptic phosphopeptide mapping. Shown is a typical result (this experiment was repeated at least three times). N-nonstimulated cells; T-cells treated with 50 ng/ml TPA; T/A: cells treated with 50 ng/ml TPA and 1 μg/ml A23187; T/A+CsA: cells treated with T/A and 100 ng/ml CsA. a,b,c,x and y correspond to the various tryptic phosphopeptides of c-Jun, previously described by Boyle, et al., (Cell, 64:573-584, 1991) and Smeal, et al., (Nature, 354:494-496, 1991). T1 and T2 correspond to the minor phosphorylation sites; Thr91, 93 and 95 (Hibi, et al., Genes & Dev., 7:000, 1993).
compound,measurement,setting,value
cyclosporin A [CsA],"JNK activity, CsA added to TPA+A23187",JNK; CsA 100 ng/ml,inhibited
same,"N-terminal c-Jun phosphorylation, CsA added to TPA+A23187",c-jun; CsA 100 ng/ml,prevented the enhancement of N-terminal phosphorylation
same,"phosphorylated c-Jun migration, CsA added to TPA+A23187","c-jun; CsA 100 ng/ml, 15 minutes",reduced the Ca^++ effect
CNc1ccc2oc(C[C@H]3O[C@@]4(CC[C@H]3C)O[C@H]([C@H](C)C(=O)c3ccc[nH]3)[C@H](C)C[C@H]4C)nc2c1C(=O)O [A23187],"JNK activity, costimulation with TPA",JNK; A23187 1 μg/ml plus TPA,enhanced
same,"N-terminal c-Jun phosphorylation, costimulation with TPA",c-jun; A23187 1 μg/ml plus TPA 50 ng/ml,strongly enhanced
same,"phosphorylated c-Jun migration, costimulation with TPA","c-jun; A23187 1 μg/ml plus TPA, 15 minutes",enhanced this effect
CCCCCCCCCCCCCC(=O)O[C@@H]1[C@@H](C)[C@@]2(O)[C@@H](C=C(CO)C[C@]3(O)C(=O)C(C)=C[C@@H]23)[C@H]2C(C)(C)[C@]12OC(C)=O [TPA],"JNK activity, TPA alone","JNK; TPA 50 ng/ml, 15 minutes",moderate increase in JNK activity
same,"phosphorylated c-Jun migration on SDS-PAGE, agent alone","c-jun; Jurkat transfected with c-Jun vector, TPA 50 ng/ml, 15 minutes",induced the appearance of slower migrating bands
same,"phosphorylation of N-terminal sites Ser63 and Ser73 of c-Jun (phosphopeptide map), agent alone","c-jun; Jurkat, TPA 50 ng/ml",increased phosphorylation of the N-terminal sites
